We go through 87 compounds from a melting point compilation (Tetko et al.; mined from patent text by program, amines drawn as free bases though some values may be those of a salt).

One may read the melting point as the temperature of the solid-liquid transition.

The structures appear in SMILES notation. A value given as a limit tells only on which side of the number the result lay.

`CCOC(=O)c1cnc2sc(Br)c(C)c2c1O` displayed a melting point of 214 to 216 °C.
Next, `O=C(COc1ccccc1)COc1ccccc1`: 55 to 57 °C; `CC1(C)OCC(COc2ccc(-c3ccc4cc(C(=O)O)ccc4c3)cc2C23CC4CC(CC(C4)C2)C3)O1` (configuration not stated): 287 °C; `CNC(=O)c1cc2c(Oc3ccc(Cl)c(F)c3)cncc2s1`: 62 to 64 °C.
Compound `Cc1ccnc(-c2cccc(Br)n2)n1` came in with a melting point of 127 °C.
As for `CC1(C)CC(OC(=O)NN)CC(C)(C)N1`, the figure is 93 to 94 °C; as for `CC(=O)OCC(=O)C1(OC(C)=O)CCC2C3CCC4=CC(=O)C=CC4(C)C3C(O)CC21C` (configuration not stated), 99.5 °C; as for `CC(=O)CSc1nc2ccccc2n1C`, 87 to 88 °C.
With `COC(=O)c1ccc2c(c1C(=O)OC)OCO2`, the melting point was in the range of 57 to 59 °C.
`CC(C)n1cc(-c2nc(C(N)=O)c(N)nc2-c2ccc(F)c(F)c2)ccc1=O` showed a melting point of 226 °C.
As for `CC(Cc1c[nH]c2ccccc12)(NC(=O)OC1C2CC3CC(C2)CC1C3)C(=O)c1ccccc1CCCC(=O)O` (configuration not stated), the figure is 123 to 137 °C.
Next, `CN(C)S(=O)(=O)c1cc2c(c(Cl)c1Cl)OC(CCl)C2` (configuration not stated): 77 to 78 °C; `O=c1[nH]c(-c2cccc(Oc3ccc4c(c3)S(=O)(=O)N=C3CCCN34)c2)no1`: above 250 °C.
As to `OC1(c2ccc(F)cc2)CCC2(CC1)OCCO2`, the melting point was 133 to 135 °C.
Next, `Cc1cccc(-c2nsc(=O)o2)c1`: 82.5 to 84 °C; `COc1ccc(-c2nc(C(F)(F)F)c(Br)[nH]2)cc1Cl`: 228 °C.
Consider `O=C(O)c1ccc2c(c1)c(=O)[nH]c(=O)n2CCCCN1CCC(OC(c2ccccc2)c2ccccc2)CC1`, for which the melting point lay in the range of 161 to 163 °C.
`O=C(NCC1CCN(C[C@H]2COc3cccc(Cl)c3O2)CC1)c1cccnc1` came in with a melting point of 52 to 54 °C.
`COc1ccc(NC(=O)CCCn2nnnc2C)cc1` came in with a melting point of 132 to 134 °C.
As for `Cc1cccc2c1nc1n2CC(C(C)(C)C)Oc2c(Cl)cccc2-1` (configuration not stated), the figure is 191 to 192 °C.
As for `O=C(Nc1cccnn1)N1CCN(c2nc(-c3cccc(F)c3F)cs2)CC1`, the figure is 215 to 216 °C; as for `C[C@@H](NC(=O)c1cnn(-c2ccc(C(F)(F)F)cc2)c1C(F)(F)F)[C@](O)(Cn1cncn1)c1ccc(F)cc1F`, 141 to 143 °C; as for `CC(=O)/C=C(\C)c1ccc(C2CCCCC2)c(Br)c1`, 52 to 53 °C.
Next, `COc1cc2c3c(n(Cc4ccccc4)c(=O)c2cc1OC)-c1cc2c(cc1C3=O)OCO2`: 310 to 312 °C; `COC(=O)c1cc2c(Cl)cc(C(=O)OC)c(Cl)c2c(Cl)c1Cl`: 140 to 142 °C; `Cc1nc2c(NC(=O)C(C)(C)C)c(C(O)C=Cc3ccccc3)ccn2c1C` (configuration not stated): 194 to 195 °C.
In turn, `COc1ccc(/C=C/C(=O)Nc2ccccc2C(=O)OCC(=O)OC(C)(C)C)cc1OC` showed a melting point of 116 to 118 °C.
Next, `COC(=O)CCc1cc2cc(Br)ccc2n1S(=O)(=O)c1ccccc1`: 109 to 113 °C.
As for `CC(C)(C)OC(=O)NC1CCCCCC=CC2CC2(C(=O)NS(=O)(=O)C2CC2)NC(=O)C2CC(OC(=O)c3ccc(-n4cccn4)cc3)CN2C1=O` (configuration not stated), the figure is 167 to 169 °C.
As for `Cc1[nH]cc2c(=O)n(-c3ccc(Cl)cc3)nc-2c1-c1cccc(-n2cnnc2)c1`, the figure is above 350 °C; as for `O=S(=O)(CC1CC=CCO1)c1ccc(Oc2ccc(OC(F)(F)F)cc2)cc1` (configuration not stated), 62 to 72 °C.
Consider `CC(NC(=O)c1ccc(NC(=O)c2ccccc2SSc2ccccc2C(=O)Nc2ccc(C(=O)NC(C)C(=O)O)cc2)cc1)C(=O)O` (configuration not stated), for which the melting point is 265 °C.
Next, `CCOC(=O)c1cnc2c3cc(NS(C)(=O)=O)ccc3ncn2c1=O`: 310 to 312 °C; `Cc1ccc(-c2nc3c(o2)C(=O)c2ccccc2C3=O)cc1`: above 260 °C.
Next, `CC(=O)c1ccc(C(Br)C(=O)OC(C)(C)C)cc1` (configuration not stated): 54 to 56 °C; `CCCn1c(=O)c2c(N)n(C(=O)OC)nc2c2ccccc21`: 180 to 184 °C.
As for `CCCc1nc(-n2c(C)ccc2C)c(/C=C/C(=O)O)n1Cc1ccc(-c2ccccc2-c2nnn[nH]2)cc1`, the figure is 144 to 150 °C; as for `CCN(CC)S(=O)(=O)c1ccc(-c2cnc3[nH]c(CCc4cc(OC)ccn4)nc3c2)cc1`, 127 to 129 °C; as for `COc1cc(OC)nc(Oc2cccc3c2C(=O)OC3Oc2ccccc2)n1` (configuration not stated), 155 to 157 °C.
`CCN1CCc2ccc(Nc3ncc(Cl)c(Nc4ccccc4C(=O)NC)n3)cc2CC1` displayed a melting point of 201 °C.
Next, `CCOc1ccccc1-c1nc2c(C)nn(C)c2c(=O)[nH]1`: 201 to 204 °C; `Cc1cc(C(=O)C(F)(F)F)ccc1NC(=O)OC(C)(C)C`: 85 to 87 °C; `Cc1nc(N)nc(N)c1-c1cc(Cl)c([N+](=O)[O-])c(Cl)c1Cl`: 313 to 315 °C.
Next, `N#Cc1ccc(-c2ccc(C=Cc3ccccc3)o2)nc1`: 154 to 155 °C; `CCCc1ccc2c(c1)C1(O)C(=O)c3ccccc3C1(O)O2` (configuration not stated): 126 to 127 °C.
Next, `NS(=O)(=O)Oc1ccc(Cl)cc1`: 103 to 104 °C; `CCCCCCC#Cc1csc(C=O)c1`: 2 °C.
The compound `COc1ccc(NC(=S)NC(NC(=O)c2ccc(C)cc2)C(F)(F)F)cc1` (configuration not stated) had a melting point of 193 to 194 °C.
Next, `COc1ccc(-c2nc(CCBr)nc3cc(OC)c(OC)cc23)cc1OC`: 166 to 167 °C; `COCCOc1ccc(/C=C/C(=O)O)c(OCC2CC2)c1`: 118 to 119 °C.
Regarding `O=C(c1cc2ccnc(Cl)c2[nH]1)N1CCCC1`, the melting point fell in the range of 152 to 154 °C.
Next, `NCC(CCO)c1ccc(Cl)c(Cl)c1` (single isomer, unassigned; (+)): 80 to 81 °C; `O=C(NC1CCCCC1)c1ccc2nonc2c1`: 172 to 173 °C; `Cc1cc(C2=NOC(c3cc(Cl)cc(Cl)c3)(C(F)(F)F)C2)ccc1C(=O)NCC(N)=O` (configuration not stated): 87 to 91 °C.
As for `COc1ccc(-c2cccc3c2OC(COS(=O)(=O)c2ccc(C)cc2)C3)c(OC)c1` (configuration not stated), the figure is 120 to 123 °C; as for `COc1cccc2oc(C(=O)c3cccc(C(F)(F)F)c3)c(C)c12`, 91 to 92 °C.
Next, `Cc1cc(Cl)c(C(N)=O)cc1[N+](=O)[O-]`: 180 to 183 °C; `CCCOc1cc(CCCOc2nn(C)cc2CC(=O)O)n(Cc2ccc(Cl)cc2Cl)n1`: 77 to 81 °C.
In turn, `CC1(C)OC(=O)Nc2ccc(-c3cc(Cl)cc(C#N)c3)cc21` gave a melting point of 256 to 257 °C.
As for `O=C1CCC(n2cnc3ccc(Cl)cc3c2=O)C(=O)N1` (configuration not stated), the figure is 302 to 305 °C; as for `Cn1c(CNC(=O)Nc2ccc3c(c2)CCC3NC(=O)OC(C)(C)C)c(-c2ccccc2)c2cc(Cl)ccc2c1=O` (configuration not stated), 225 to 227 °C.
The compound `CCC1CCC(=O)C=C1c1ccc(OC(CC)C(=O)O)c(Cl)c1Cl` (configuration not stated) registered a melting point of 160 to 162 °C.
Next, `CSC1C(=O)Nc2c(C(=O)c3ccc(F)cc3)cc(F)cc21` (configuration not stated): 171 to 172 °C; `C=CCCC(=O)N1CCc2nnc(NN)cc2C1`: 132 to 134 °C.
Next, `CCCCOc1cc2c(Cl)c(C#N)cnc2cc1OCCOC`: 128 to 130 °C.
As for `C=CCONC(CCC)=C1C(=O)CC(CCC2OCCCO2)CC1=O` (configuration not stated), the figure is 50 to 52 °C.
`O=C(NC1CCCCC1)OC1c2nccnc2C(=O)N1c1ccc2ccc(Cl)nc2n1` (configuration not stated) displayed a melting point of 264 °C.
As for `Nc1nc2c(c(Nc3ccc(Cl)cc3)n1)-c1ccccc1C2`, the figure is 216 to 217 °C; as for `COc1ccc(-c2nn(Cc3ccc(F)cc3)c(=O)cc2-c2ccncc2)cc1`, 154 to 155 °C.
Next, `COc1cc(/C=C2/C(=O)OC[C@H]2Cc2cc(OC)c(OCc3ccc([N+](=O)[O-])cc3)c(OCc3ccc([N+](=O)[O-])cc3)c2)cc(OC)c1OC`: 171 to 172 °C; `CCCc1c(O)c(C(C)=O)cc(I)c1OCc1ccc(C(=O)O)cc1`: 167 to 168 °C; `CCn1nc(-c2ccccc2)c(C(C)=O)c(Nc2cccc3nc(C)ccc23)c1=O`: 204 to 205 °C.
`Cc1c(OCc2ccccc2)cc(C(C)(C)C)cc1[N+](=O)[O-]` came in with a melting point of 77 to 79 °C.
Next, `COc1ccc(Cl)cc1C(=O)N(CCCC(=O)O)C(c1ccccc1)c1ccccc1`: 176 to 178 °C; `CCOC(=O)/C=C(C)/C=C/C=C(C)/C=C/c1c(C)coc1C`: 98 to 101 °C.
As for `CCCCN1CC(=O)C(C(=O)OCC)C1=O` (configuration not stated), the figure is 121 to 123 °C; as for `Cc1ccc(S(=O)(=O)CNc2nc(C)cc(C)n2)cc1`, 191 to 194 °C.
On to `COC(=O)C(Cc1ccc(OCc2ccccc2)cc1)NC(=O)c1cc2ccc(-c3ccc(Cl)cc3)cc2[nH]1` (configuration not stated), for which the melting point was in the range of 196 to 198 °C.
As for `CCCCc1nc2cnc3cccnc3c2n1CCCCNC(=O)OC(C)(C)C`, the figure is 96 to 98 °C; as for `Cc1oc(-c2ccccc2)nc1CCC(O)c1ccc(CC2OC(=O)NC2=O)cc1` (configuration not stated), 154 to 155 °C; as for `CC(=O)OCC1COc2c(cc(Cl)cc2[N+](=O)[O-])N1` (configuration not stated), 76 to 84 °C.
Next, `O=Cc1c(Cl)ccc(Br)c1F`: 92 to 93 °C; `COc1cc(C(=O)C=Cc2ccccc2)ccc1O`: 61 to 64 °C.
Next, `CCCn1cc(Cc2ccc(C(=O)O)cc2OC)c2cc(CC3CCN(C)C3=O)ccc21` (configuration not stated): 98 to 107 °C; `CSc1ccc(/C=C2/C(C)=C(C(C)N(O)C(N)=O)c3cc(F)ccc32)cc1` (configuration not stated): 150 to 152 °C; `COc1ccc(CN(C)CCSc2ccc(NC(=O)c3cccc4c(=O)c5ccccc5[nH]c34)cc2)cc1OC`: 113 °C.
As to `CC(=O)N1c2ccc(C#N)cc2C(Nc2ccc(Cl)cc2)CC1C` (configuration not stated), the melting point was in the range of 212 to 213 °C.
